The values below come from patent publication US5593835A, “Methods and kits for RNA binding compounds” (President and Fellows of Harvard College, priority 1995, dated 1997).

Assay [1] concerns the target X1s1 RNA (SEQ ID NO: 3), synthetically derived from the predicted structures. Nature of the assay: Fluorescence binding measurements, X1s1 RNA. Particulars: K1 - high affinity; footnote b: ligand is 6'N4-pyreneacetyl tobramycin; read-out: Dissociation Constants K1(PYT). The procedure:
(§1) The binding of tobramycin to two cloned RNAs X1 (SEQ ID NO:2) and J6 (SEQ ID NO:5), representative of both classes of consensus sequences, was measured using the fluorescence techniques described in the exemplification.
(§2) *synthetically derived from the predicted structures
(§3) Steady state fluorescence measurements were performed on a double beam fluorescence spectrometer (Perkin-Elmer Model 512, Norwalk, Conn.). The excitation wavelength was 341 nm. All measurements were done at 20° C. in 140 mM NaCl, 5 mM KCl, 1 mM CaCl2, 1 mM MgCl2, and 20 mM HEPES, pH 7.4. The KD of the PYT and the RNA aptamer was calculated by the curve fitting of the fluorescence intensity as a function of RNA concentration, using the following equation
(§4) Competition binding measurements of antibiotics with RNA and PYT were performed at constant concentrations of PYT and RNA by monitoring fluorescence intensity changes as a function of changing concentrations of the antibiotics (a standard fluorescence curve). The KD s for the antibiotics were calculated by the curve fitting of the fluorescence intensity of PYT as a function of antibiotic concentration, using the following equation: […]

Assay [2] has as its system W13 RNA having SEQ ID NO:1. Kind of assay: Fluorescence (PYT quenching) titration and competition binding to W13 RNA. Particulars: for competition with PYT binding (in words): fluorescence competition assay. The procedure:
To study the binding behavior of clone W13, a fluorescently labelled pyrene-conjugated tobramycin derivative "PYT" was prepared.
For competitive binding studies, different concentrations of antibiotic (glucosamine (0-10 mM), erythromycin (0-6 mM), gentamicin C (0-700 μM), or neomycin B (0-650 μM)), were mixed with constant concentrations of RNA (300 nM W13) and PYT (150 nM), in Binding buffer (140 mM NaCl, 5 mM KCl, 1 mM MgCl2, 1 mM CaCl2, 20 mM HEPES, pH 7.4), 750 μl total volume, for 1-5 min. at 20° C. in a semimicro-cell cuvette. The fluorescence was measured on a Perkin-Elmer Model 512 double beam fluorescence spectrophotometer. The excitation wavelength used was 341 nm. The intensities of fluorescence emission at 380 nm were used to calculate dissociation constants. Generally 8 to 10 points were used for calculation.
as §3
(assuming a 1:1 complex): I=Io +0.5Δε ([PYT]o
-(([PYT]o +[RNA]o KI)^2 -4[PYT]o [RNA]o)^0.5)
Competition binding measurements of antibiotics with RNA and PYT were performed at constant concentrations of PYT and RNA by monitoring fluorescence intensity changes as a function of changing concentrations of the antibiotics (a standard fluorescence curve). The KD s for the antibiotics were calculated by the curve fitting of the fluorescence intensity of PYT as a function of antibiotic concentration, using the following equation:
I=Io +Δε[PYT.circle-solid.RNA]
[PYT.circle-solid.RNA]=0.5(([PYT]o +[RNA]o)([RNA]o
+KD)+KI ([T]o +[RNA]o +KD)-((([PYT]o
+[RNA]o)([RNA]o +KD)+KI ([T]o +[RNA]o
+KD))^2 -4([RNA]o +KD) [PYT]o [RNA]o
([RNA]o +KD))^0.5)([RNA]o +KD) (equation 2)
KD and KI are the dissociation constants for the antibiotic and PYT respectively.
[T]o is the total concentration of antibiotic added. Measurements were taken at least twice for each measured KD.

Another assay has as its target RRE region of HIV RNA. Kind of assay: Fluorescence binding and competitive binding to RRE RNA. Particulars: competition, 100 nM RNA, 15 nM fluorescent tobramycin, 20° C., pH 7.4; read-out: Dissociation Constant (KD) RRE RNA. The procedure:
In order to quantitatively determine whether fluorescently labelled tobramycin and other antibiotics bind directly to the RRE region and/or to other regions of the HIV RNA, and with what affinity, the RRE and TAR regions of HIV RNA were prepared and used in the method of the invention as target RNAs.
For binding studies, different concentrations of RRE RNA (from 0 to 300 nm) were mixed with a constant concentration (15 nM) PYT in Binding buffer (140 mM NaCl, 1 mM MgCl2, 20 mM HEPES, pH 7.4), 2 ml total volume, for 1-5 min. at 20° C. in a semimicro-cell cuvette. The fluorescence was measured on a Perkin-Elmer Model 512 double beam fluorescence spectrophotometer. The excitation wavelength used was 330 nm. The intensities of fluorescence emission at 390 nm were used to calculate dissociation constants. Generally 8 to 12 points were used for calculation.
In other competitive binding studies, TAR or RRE RNA was added at a constant concentration of 100 nM±5% and PYT at 15 nM. Different concentrations of competitive antibiotic (tobramycin (o-60 μM), gentamicin C (0-100 μM), neomycin B (0-4 μM), or lividomycin A (0-100 μM) or Rev protein (0-6 μM) were mixed with constant concentrations of RNA (100 nM TAR or RRE) and C1PYT (15 nM), in Binding buffer (140 mM NaCl, 5 mM KCl, 1 mM MgCl2, 20 mM HEPES, pH 7.4), 2 ml total volume, for 1-5 min. at 20° C. in a semimicrocell cuvette. The fluorescence was measured on a Perkin-Elmer Model 512 double beam fluorescence spectrophotometer. The excitation wavelength used was 330 nm. The intensities of fluorescence emission at 390 nm were used to calculate dissociation constants. Generally 8 to 12 points were used for calculation.
Wild type and mutant RRE RNAs were transcribed in vitro by T7 RNA polymerase using synthetic oligonucleotide templates, as described by Milligan et al. (Meth. Enzymol. (1989) 180: 51-62).
as §4

Assay [3] addresses clone W13 RNA (SEQ ID NO:1), tobramycin-selected RNA aptamer. Kind of assay: Equilibrium dialysis binding to clone W13 RNA. Particulars: equilibrium dialysis, direct; read-out: KD. The procedure:
One of these RNAs, clone W13 (SEQ ID NO:1) was chosen for quantitative studies to determine the specificity of its binding to RNA. […] The dissociation constant for tobramycin was determined to be 3 μM by competition studies with ^3 H-acetyl tobramycin. These values are close to those measured for tobramycin and ^3 H-acetyl tobramycin binding to ribosomal targets (LeGoffic et al. (1979) Eur. J. Biochem. 102: 73-81).
Equilibrium dialysis measurements were performed according to the procedure of Lorsch et al. (Biochem. (1994) 33: 973-982).
In general terms: Equilibrium dialysis compares concentrations on both sides of a semipermeable membrane.

Assay [4] deals with J6a1 RNA (SEQ ID NO: 5), synthetically derived from the predicted structures. Nature of the assay: Fluorescence binding measurements, J6a1 RNA. Particulars: K1 - high affinity; fluorescent ligand per footnote a/b; read-out: Dissociation Constants K1(PYT). The procedure: as §1, §2, §3, §4
Another assay addresses J6 RNA (SEQ ID NO:5). Nature of the assay: Fluorescence binding measurements, J6 RNA. Particulars: K1 - high affinity; fluorescent ligand per footnote a/b; read-out: Dissociation Constants K1(PYT). The procedure: as §1, §3, §4
Assay [5] addresses random selected RNA pool (low stringency tobramycin column). Kind of assay: Fluorescence assay, average binding of the random selected RNA pool. Particulars: overall selected pool mixture. The procedure: To determine whether the W13 RNA clone is representative of the average binding capacity of the random selected RNA pool, the average KD values for the random selected pool were measured. […] Therefore, the W13 RNA is representative of the average binding capacity of the random selected pool.
as §3, §4

In assay [6] the test system is RNA pool transcribed from DNA after the sixth selection, bound to tobramycin affinity column. Nature of the assay: Elution of bound RNA from tobramycin affinity column. Format: binding. Particulars: 10 column volumes of selection buffer containing 50 mM D-glucosamine. From the text:
Elution patterns of the RNA from the columns are shown in FIG. 4 for the second and sixth selections. Over 6 cycles of selection, the percentages of RNA specifically eluted with tobramycin were <0.1%, 3.0%, 2.9%, 26%, 55%, and 82%. […] The RNA pool transcribed from DNA after the sixth selection could not be eluted from the affinity column, even after 100 column volumes of selection buffer.
An N-hydroxysuccinimide Affi-Gel affinity column (Bio-Rad, Hercules, Calif.) was derivatized with either 20 μmoles or 0.075 μmoles tobramycin per ml of gel to generate the affinity columns. Excess N-hydroxysuccinimide linkages were blocked by adding 1M ethanolamine. The resulting column served as the support for the RNA selections. The tobramycin concentration on column was estimated as about 15 mM. Selections were performed in 1 ml column volumes in a buffer (selection buffer) containing 140 mM NaCl, 5 mM KCl, 1 mM CaCl2, 1 mM MgCl2, and 20 mM Tris acetate, pH 7.4 (Bock et al. (1992) Nature 355: 564-566). A 1 ml Affi-Gel 10 pre-column treated with ethanolamine was used in all selections.
The original double stranded DNA pool was constructed by large scale PCR amplification of the synthesized 109mer random DNA pool (Oligos, Etc., Inc., Wilsonville, Oreg.) containing 60 random nucleotides. […]

Where [7] appears, read: fluorescence, competition with PYT (150 nM PYT, 300 nM W13), 20° C., pH 7.4, N.B. = no measurable binding.

Take `N[C@@H]1[C@@H](O)[C@@H](O[C@@H]2[C@@H](O)[C@H](O[C@H]3O[C@H](CNC(=O)Cc4ccc5ccc6cccc7ccc4c5c67)[C@@H](O)C[C@H]3N)[C@@H](N)C[C@H]2N)O[C@H](CO)[C@H]1O` [6'N4-pyreneacetyl tobramycin, 6'-N-4-pyreneacetyl tobramycin]: the Kd in assay [1] was 65.1 ± 7.4 nM.
In the case of gentamicin, the “competition with PYT binding (in words)” value in assay [2] is “potent inhibitors of binding”. The Kd in assay [2] (setting [7]) turned out to be 4700 ± 4000 nM; at RRE region of HIV RNA it was 10800 ± 680 nM.
Take `CC(=O)NCC1OC(OC2C(N)CC(N)C(OC3OC(CO)C(O)C(N)C3O)C2O)C(N)CC1O` (stereo not shown) [^3 H-acetyl tobramycin, 6-N-^3 H-Acetyl Tobramycin]: in assay [3], the Kd amounted to 1300 nM.
As for `N[C@@H]1[C@@H](O)[C@@H](O[C@@H]2[C@@H](O)[C@H](O[C@H]3O[C@H](CNC(=O)CCCc4ccc5ccc6cccc7ccc4c5c67)[C@@H](O)C[C@H]3N)[C@@H](N)C[C@H]2N)O[C@H](CO)[C@H]1O` [PYT, 6'-N-4-pyrenebutyryl tobramycin], the Kd in assay [4] is 286 ± 10 nM; at J6 RNA (SEQ ID NO:5), 5.38 ± 0.46 nM; in assay [2] (fluorescence intensity of PYT as function of RNA concentration, 1:1 complex, 20° C., pH 7.4), 20 ± 4 nM; in assay [2] (setting [7]), 20 ± 7 nM; in assay [5], 52 ± 8 nM. Besides, the “times more tightly bound than tobramycin” value in assay [2] (ratio of KD values, PYT vs tobramycin) was “more than 200 times”.
As for `NC[C@@H]1O[C@H](O[C@H]2[C@@H](O)[C@H](O[C@@H]3[C@@H](O)[C@H](N)C[C@H](N)[C@H]3O[C@H]3O[C@H](CN)[C@@H](O)[C@H](O)[C@H]3N)O[C@@H]2CO)[C@H](N)[C@@H](O)[C@@H]1O` [neomycin B], the “competition with PYT binding (in words)” value in assay [2] is listed as “potent inhibitors of binding”. Moreover, the Kd on RRE region of HIV RNA came to 419 ± 3.8 nM.
`NC[C@@H]1O[C@H](O[C@H]2[C@@H](O)[C@H](O[C@@H]3[C@@H](O)[C@H](N)C[C@H](N)[C@H]3O[C@H]3O[C@H](CO)[C@@H](O)C[C@H]3N)O[C@@H]2CO)[C@H](N)[C@@H](O)[C@@H]1O[C@H]1O[C@H](CO)[C@@H](O)[C@H](O)[C@@H]1O` [lividomycin-A, lividomycin A]: the Kd on RRE region of HIV RNA is 11900 ± 330 nM.
For the molecule `N[C@H]1C(O)O[C@H](CO)[C@@H](O)[C@@H]1O` (stereo partly drawn) [D-glucosamine], the “competition with PYT binding (in words)” value in assay [2] is given as “did not measurably compete with PYT binding”. Besides, in assay [2] (setting [7]), the “KD (μM)” value is “N.B”. For the same molecule, the “elution of bound RNA from tobramycin affinity column (in words)” value in assay [6] is “did not cause any bound RNA to be eluted”.
With `CC[C@H]1OC(=O)[C@H](C)[C@@H](O[C@H]2C[C@@](C)(OC)[C@@H](O)[C@H](C)O2)[C@H](C)[C@@H](O[C@@H]2O[C@H](C)C[C@H](N(C)C)[C@H]2O)[C@](C)(O)C[C@@H](C)C(=O)[C@H](C)[C@@H](O)[C@]1(C)O` [erythromycin], the “competition with PYT binding (in words)” value in assay [2] was “only weakly inhibited PYT binding”. Besides, the Kd in assay [2] (setting [7]) is 505000 ± 25000 nM.
